From US10815197B2, “N-sulfonyl benzamides as voltage-gated sodium channel inhibitors” (SHANGHAI HAIYAN PHARMACEUTICAL TECHNOLOGY CO., LTD., priority 2016, dated 2020) come the findings set out here.

One test has as its target T1, hCav3.2 (Homo sapiens, UniProt O95180).
T1 construct: host or cells: HEK
Kind of test: Manual patch clamp experiment of hCav3.2 channel (HEK-hCav3.2). Format: cell-based. The following applies: read-out: Cav3.2(IC50/nM). The protocol: Manual Patch Clamp Experiment of hCav3.2 Channel: The stable cell line HEK-hCav3.2 used for manual patch clamp experiments was from WuXi Apptec (Shanghai) Company. […] Composition of extracellular fluid (millimoles) in the experiment: HEPES 10, CsCl 6, CaCl2) 2, TEA-Cl 140. The pH was adjusted to 7.4 with CsOH, while the osmotic pressure was adjusted to 310-320 mOsm with sucrose, filtered and stored at 4° C. Composition of the intracellular fluid (millimoles): HEPES 10, CsCl 55, CsSO4 75, MgCl2 10, EGTA 0.1. The pH was adjusted to 7.2 with CsOH, while the osmotic pressure was adjusted to 280-290 mOsm with sucrose, filtered and stored at −20° C. […] Manual Patch Clamp Experiment: The cell suspension was added to a 35 mm petri dish and placed on an inverted microscope stage. The cells were perfused with an extracellular fluid and the flow rate was 1-2 mL/min after cell adherence. […] The stimulation program was repeated every 15 s and recorded continuously. The inhibitory effect of the compound was calculated by the change of the current before and after dosing, and the IC50 value was fitted by the Hill equation.
A general note: The patch-clamp technique gives a direct electrical read-out from membranes.

The target in the next test is T2, hNav1.5 (Homo sapiens, UniProt Q14524).
T2 construct: host or cells: HEK
T2 sequence (Q14524 whole entry): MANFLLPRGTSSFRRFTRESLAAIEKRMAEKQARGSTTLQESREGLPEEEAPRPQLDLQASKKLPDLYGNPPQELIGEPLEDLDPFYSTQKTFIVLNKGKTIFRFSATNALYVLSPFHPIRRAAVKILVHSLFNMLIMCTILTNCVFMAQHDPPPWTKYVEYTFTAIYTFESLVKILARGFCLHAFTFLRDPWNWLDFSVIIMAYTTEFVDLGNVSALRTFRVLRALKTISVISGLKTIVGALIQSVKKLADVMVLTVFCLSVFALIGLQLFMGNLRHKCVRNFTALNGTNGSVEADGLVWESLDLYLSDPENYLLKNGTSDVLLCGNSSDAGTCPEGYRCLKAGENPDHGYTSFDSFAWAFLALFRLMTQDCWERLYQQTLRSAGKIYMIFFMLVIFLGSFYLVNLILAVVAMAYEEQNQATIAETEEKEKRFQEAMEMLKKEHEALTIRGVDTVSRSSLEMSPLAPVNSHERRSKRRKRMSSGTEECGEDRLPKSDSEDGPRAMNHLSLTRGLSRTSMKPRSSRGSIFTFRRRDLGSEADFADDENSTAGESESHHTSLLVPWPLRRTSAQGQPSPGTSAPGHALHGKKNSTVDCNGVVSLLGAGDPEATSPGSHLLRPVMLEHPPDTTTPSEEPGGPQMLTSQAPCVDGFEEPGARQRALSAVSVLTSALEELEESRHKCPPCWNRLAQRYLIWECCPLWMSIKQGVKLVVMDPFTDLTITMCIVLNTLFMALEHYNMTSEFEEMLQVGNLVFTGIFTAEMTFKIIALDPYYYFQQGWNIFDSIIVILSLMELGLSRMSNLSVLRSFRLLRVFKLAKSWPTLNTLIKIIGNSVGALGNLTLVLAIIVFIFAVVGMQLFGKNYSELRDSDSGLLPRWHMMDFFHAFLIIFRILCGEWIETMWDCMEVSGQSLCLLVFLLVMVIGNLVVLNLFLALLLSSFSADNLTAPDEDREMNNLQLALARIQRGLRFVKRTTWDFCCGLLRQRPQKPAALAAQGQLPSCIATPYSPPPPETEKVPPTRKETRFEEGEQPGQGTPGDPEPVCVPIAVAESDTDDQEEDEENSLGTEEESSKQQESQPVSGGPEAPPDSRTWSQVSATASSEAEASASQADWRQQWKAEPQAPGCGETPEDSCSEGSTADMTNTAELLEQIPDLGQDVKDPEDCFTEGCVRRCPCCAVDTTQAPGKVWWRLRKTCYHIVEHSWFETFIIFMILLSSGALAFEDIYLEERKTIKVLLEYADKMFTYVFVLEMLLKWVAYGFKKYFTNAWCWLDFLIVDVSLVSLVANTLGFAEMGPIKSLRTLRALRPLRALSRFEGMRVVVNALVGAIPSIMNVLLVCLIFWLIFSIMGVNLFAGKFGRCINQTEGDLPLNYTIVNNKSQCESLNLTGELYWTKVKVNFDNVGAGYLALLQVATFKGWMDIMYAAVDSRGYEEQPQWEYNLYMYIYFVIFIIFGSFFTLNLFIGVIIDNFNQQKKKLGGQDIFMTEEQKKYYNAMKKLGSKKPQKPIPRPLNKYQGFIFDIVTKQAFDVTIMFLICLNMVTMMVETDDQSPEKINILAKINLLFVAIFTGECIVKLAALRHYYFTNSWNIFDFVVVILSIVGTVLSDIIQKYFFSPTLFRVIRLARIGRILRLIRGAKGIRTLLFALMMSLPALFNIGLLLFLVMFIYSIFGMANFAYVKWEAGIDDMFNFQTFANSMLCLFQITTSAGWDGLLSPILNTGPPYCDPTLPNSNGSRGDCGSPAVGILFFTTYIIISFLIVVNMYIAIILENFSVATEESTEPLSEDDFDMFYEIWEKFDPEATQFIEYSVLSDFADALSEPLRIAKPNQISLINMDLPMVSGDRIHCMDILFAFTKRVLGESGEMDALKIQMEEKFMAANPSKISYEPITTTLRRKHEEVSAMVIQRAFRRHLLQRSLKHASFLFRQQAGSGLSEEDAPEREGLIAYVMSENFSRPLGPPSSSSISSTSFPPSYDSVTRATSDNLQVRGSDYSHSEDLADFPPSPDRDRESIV
The test can be described thus: Manual patch clamp experiment hNav1.5 (HEK-hNav1.5 stable cell line). The format is cell-based. The following applies: read-out: Nav1.5(IC50/nM). An excerpt:
Assay 1: Manual Patch Clamp Experiment of Sodium Ion (hNav1.7, hNav1.5 and hNaV1.8) and Calcium Ion (hCav3.2) Channels
hNav1.7, hNav1.5 Manual Patch Clamp Experiment:
Patch voltage clamp electrophysiology allows for the direct measurement and quantification of current block of voltage-gated sodium channels (NaV's), and allows the determination of the time and voltage-dependence of block which has been interpreted as differential binding to the resting, open and inactivated states of the sodium channel to reflect the compound's inhibitory or activating effects (Hille, B., Journal of General Physiology (1977), 69: 497-515).
Representative compounds of the present invention were subject to a manual patch clamp experiment and the purpose of this study was to test the effect of compounds on this ion channel current on a stable cell line transfected with a specific ion channel using a manual patch clamp method. The used stable cell lines CHO-hNav1.7 and HEK-hNav1.5 were from Genionics and WuXi Apptec (Shanghai) respectively.
Manual patch clamp experimental program is as follows: […]
The time intervals of these two voltage stimulation programs were 10 s. The inhibitory effect of the compound was calculated by the change of the current before and after dosing, the IC50 value was fitted by the Hill equation.

T1 sequence (O95180 whole entry): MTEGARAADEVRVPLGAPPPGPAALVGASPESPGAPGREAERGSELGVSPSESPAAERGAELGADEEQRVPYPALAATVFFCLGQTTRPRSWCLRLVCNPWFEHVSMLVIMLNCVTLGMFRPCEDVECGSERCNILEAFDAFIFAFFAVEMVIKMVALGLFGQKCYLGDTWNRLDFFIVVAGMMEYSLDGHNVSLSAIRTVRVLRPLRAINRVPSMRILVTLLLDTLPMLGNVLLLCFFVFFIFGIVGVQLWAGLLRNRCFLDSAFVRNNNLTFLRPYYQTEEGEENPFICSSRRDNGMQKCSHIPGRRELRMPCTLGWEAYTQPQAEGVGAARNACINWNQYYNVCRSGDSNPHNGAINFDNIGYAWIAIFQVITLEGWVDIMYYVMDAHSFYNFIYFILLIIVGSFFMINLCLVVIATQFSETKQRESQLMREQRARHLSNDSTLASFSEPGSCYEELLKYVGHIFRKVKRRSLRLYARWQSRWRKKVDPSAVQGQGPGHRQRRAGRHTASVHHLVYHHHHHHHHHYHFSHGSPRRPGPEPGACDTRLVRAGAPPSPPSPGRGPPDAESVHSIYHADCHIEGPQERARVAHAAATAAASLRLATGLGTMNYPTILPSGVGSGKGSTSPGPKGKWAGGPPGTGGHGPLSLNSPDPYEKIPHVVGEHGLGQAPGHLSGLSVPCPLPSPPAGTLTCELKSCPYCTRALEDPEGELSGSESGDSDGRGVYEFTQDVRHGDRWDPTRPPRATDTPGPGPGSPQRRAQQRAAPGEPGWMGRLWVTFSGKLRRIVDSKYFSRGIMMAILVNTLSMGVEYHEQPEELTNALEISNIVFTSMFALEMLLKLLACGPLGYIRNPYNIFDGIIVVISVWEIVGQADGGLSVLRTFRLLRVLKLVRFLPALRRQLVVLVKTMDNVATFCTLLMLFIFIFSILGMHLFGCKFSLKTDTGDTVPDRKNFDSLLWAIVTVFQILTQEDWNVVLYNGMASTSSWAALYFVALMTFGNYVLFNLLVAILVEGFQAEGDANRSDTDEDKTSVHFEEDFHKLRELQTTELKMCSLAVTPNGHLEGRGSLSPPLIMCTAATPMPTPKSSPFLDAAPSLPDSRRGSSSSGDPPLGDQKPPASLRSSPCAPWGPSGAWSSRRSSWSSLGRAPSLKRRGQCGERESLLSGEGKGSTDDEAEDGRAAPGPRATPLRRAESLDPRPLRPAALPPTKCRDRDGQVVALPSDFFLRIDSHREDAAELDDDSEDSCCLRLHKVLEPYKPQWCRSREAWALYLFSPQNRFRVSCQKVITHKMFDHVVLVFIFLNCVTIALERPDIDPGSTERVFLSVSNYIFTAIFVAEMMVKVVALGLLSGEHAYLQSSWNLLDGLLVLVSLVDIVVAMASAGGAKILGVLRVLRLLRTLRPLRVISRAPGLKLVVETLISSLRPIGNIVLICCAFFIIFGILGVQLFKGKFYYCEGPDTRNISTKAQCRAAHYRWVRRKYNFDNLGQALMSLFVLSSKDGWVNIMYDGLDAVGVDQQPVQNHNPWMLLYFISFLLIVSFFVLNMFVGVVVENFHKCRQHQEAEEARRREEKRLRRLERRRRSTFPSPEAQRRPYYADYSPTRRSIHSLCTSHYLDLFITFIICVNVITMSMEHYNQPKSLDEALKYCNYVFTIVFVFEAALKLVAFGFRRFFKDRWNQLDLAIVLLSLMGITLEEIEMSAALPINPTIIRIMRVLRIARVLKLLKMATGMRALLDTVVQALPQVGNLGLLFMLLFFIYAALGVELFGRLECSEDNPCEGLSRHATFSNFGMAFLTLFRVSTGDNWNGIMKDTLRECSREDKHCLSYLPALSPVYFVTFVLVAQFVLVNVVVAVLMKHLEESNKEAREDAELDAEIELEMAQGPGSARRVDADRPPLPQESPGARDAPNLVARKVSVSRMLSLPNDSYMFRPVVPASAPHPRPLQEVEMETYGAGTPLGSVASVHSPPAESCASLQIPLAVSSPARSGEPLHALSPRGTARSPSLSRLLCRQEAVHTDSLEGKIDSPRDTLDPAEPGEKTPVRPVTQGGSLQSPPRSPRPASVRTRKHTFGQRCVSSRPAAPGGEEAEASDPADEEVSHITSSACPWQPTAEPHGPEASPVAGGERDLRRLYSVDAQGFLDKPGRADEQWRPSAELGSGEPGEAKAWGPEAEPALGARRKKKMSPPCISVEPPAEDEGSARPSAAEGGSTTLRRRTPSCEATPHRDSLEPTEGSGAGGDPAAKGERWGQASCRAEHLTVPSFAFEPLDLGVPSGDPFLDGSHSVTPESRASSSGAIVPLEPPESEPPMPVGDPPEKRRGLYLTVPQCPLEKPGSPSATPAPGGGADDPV

For `Cc1cc(N2CCN(Cc3cc(F)c(C(=O)NS(=O)(=O)C4CC4)cc3Cl)CC2)ccc1Cl` [Compound Z-164], the IC50 was more than 30000 nM at hCav3.2 and 6160 nM at hNav1.5.
